Measurements: publication PMC5908784, “Extracellular loops 2 and 3 of the calcitonin receptor selectively modify agonist binding and efficacy” (Biochemical Pharmacology, 2018)
Substitutions are numbered along the chain they refer to. Where a SMILES comes first, the peptide text is derived from it. Bridges are numbered along the chain shown (N, C = ends).

What was measured:
Assay in all cases: ERK1/2 phosphorylation
Format in all cases: cell-based
[1] = target: T1, hCTR F356A (Homo sapiens, UniProt P30988, F356A); details: CV1-FlpIn cells, mean ± S.E.M.; for Emax: pERK maximal response; for EC50: pERK, three-parameter logistic fit
T1 construct: c-Myc (N); expressed in transfected cells
T1 sequence (P30988 25-474 F356A): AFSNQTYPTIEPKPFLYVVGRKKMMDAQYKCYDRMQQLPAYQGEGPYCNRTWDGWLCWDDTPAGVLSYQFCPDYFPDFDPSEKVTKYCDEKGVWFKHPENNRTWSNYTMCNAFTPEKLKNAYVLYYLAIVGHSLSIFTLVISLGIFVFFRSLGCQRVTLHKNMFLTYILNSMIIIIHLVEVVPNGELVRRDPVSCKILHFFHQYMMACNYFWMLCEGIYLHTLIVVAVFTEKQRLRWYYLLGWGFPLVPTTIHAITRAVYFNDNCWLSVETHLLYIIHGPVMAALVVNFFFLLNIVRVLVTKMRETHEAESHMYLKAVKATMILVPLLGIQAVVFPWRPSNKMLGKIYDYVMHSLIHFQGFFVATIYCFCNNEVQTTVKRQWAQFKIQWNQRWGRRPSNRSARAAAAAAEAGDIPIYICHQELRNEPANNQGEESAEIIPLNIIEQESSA
Procedure, shortened: (§1)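 First, cells (2.5 × 10^4 per well) were plated and left overnight. Agonist concentration-response data were then scaled to the peak signal given by 10% FBS at 6 min. Finally, a 3-parameter logistic equation yielded EC50 and Emax.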

[2] = target: T2, hCTR F359A (Homo sapiens, UniProt P30988, F359A); details: for Emax: read-out: Emax (% WT); for EC50: pERK, hCTR F359A, CV1-FlpIn cells, three-parameter logistic fit, mean ± S.E.M.
T2 construct: expressed in transfected cells
T2 sequence (P30988 25-474 F359A): T1 sequence (P30988 25-474 F356A) with A332F, F335A
Procedure, shortened: as §1

[3] = target: T3, hCTR G369A (Homo sapiens, UniProt P30988, G369A); details: CV1-FlpIn cells, mean ± S.E.M.; for Emax: pERK maximal response; for EC50: pERK, three-parameter logistic fit
T3 construct: c-Myc (N); expressed in transfected cells
T3 sequence (P30988 25-474 G369A): T1 sequence (P30988 25-474 F356A) with A332F, G345A
Procedure, shortened: as §1

[4] = target: T4, hCTR V357A (Homo sapiens, UniProt P30988, V357A); details: CV1-FlpIn cells, mean ± S.E.M.; for Emax: pERK maximal response
T4 construct: c-Myc (N); expressed in transfected cells
T4 sequence (P30988 25-474 V357A): T1 sequence (P30988 25-474 F356A) with A332F, V333A
Procedure, shortened: as §1

[5] = target: T5, hCTR K366A (Homo sapiens, UniProt P30988, K366A); details: CV1-FlpIn cells, mean ± S.E.M.; for Emax: pERK maximal response; for EC50: pERK, three-parameter logistic fit
T5 construct: c-Myc (N); expressed in transfected cells
T5 sequence (P30988 25-474 K366A): T1 sequence (P30988 25-474 F356A) with A332F, K342A
Procedure, shortened: as §1

Row | SMILES | Emax [1] | Emax [2] | Emax [3] | Emax [4] | Emax [5] | EC50 [1] | EC50 [2] | EC50 [3] | EC50 [5] | EC50 ([4]; pERK, three-parameter logistic fit)
1 | CC(C)C[C@H](NC(=O)[C@H](CCCCN)NC(=O)CNC(=O)[C@H](CC(C)C)NC(=O)[C@@H](NC(=O)[C@@H]1CSSC[C@H](N)C(=O)N[C@@H](CO)C(=O)N[C@@H](CC(N)=O)C(=O)N[C@@H](CC(C)C)C(=O)N[C@@H](CO)C(=O)N[C@@H]([C@@H](C)O)C(=O)N1)C(C)C)C(=O)N[C@@H](CO)C(=O)N[C@@H](CCC(N)=O)C(=O)N[C@@H](CCC(=O)O)C(=O)N[C@@H](CC(C)C)C(=O)N[C@@H](Cc1c[nH]cn1)C(=O)N[C@@H](CCCCN)C(=O)N[C@@H](CC(C)C)C(=O)N[C@@H](CCC(N)=O)C(=O)N[C@H](C(=O)N[C@@H](Cc1ccc(O)cc1)C(=O)N1CCC[C@H]1C(=O)N[C@@H](CCCNC(=N)N)C(=O)N[C@H](C(=O)N[C@@H](CC(N)=O)C(=O)N[C@H](C(=O)NCC(=O)N[C@@H](CO)C(=O)NCC(=O)N[C@H](C(=O)N1CCC[C@H]1C(N)=O)[C@@H](C)O)[C@@H](C)O)[C@@H](C)O)[C@@H](C)O [sCT] | 72 ± 5% | 186 ± 7% | 115 ± 4% | 82 ± 7% | 136 ± 5% | – | – | – | – | –
2 | CC(C)C[C@H](NC(=O)[C@H](CC(N)=O)NC(=O)[C@H](CC(N)=O)NC(=O)[C@H](CO)NC(=O)[C@H](CO)NC(=O)[C@H](CCCNC(=N)N)NC(=O)[C@@H](NC(=O)[C@H](CC(C)C)NC(=O)[C@H](Cc1ccccc1)NC(=O)[C@H](CC(N)=O)NC(=O)[C@H](C)NC(=O)[C@H](CC(C)C)NC(=O)[C@H](CCCNC(=N)N)NC(=O)[C@H](CCC(N)=O)NC(=O)[C@@H](NC(=O)[C@H](C)NC(=O)[C@@H]1CSSC[C@H](NC(=O)[C@@H](N)CCCCN)C(=O)N[C@@H](CC(N)=O)C(=O)N[C@@H]([C@@H](C)O)C(=O)N[C@@H](C)C(=O)N[C@@H]([C@@H](C)O)C(=O)N1)[C@@H](C)O)C(C)C)C(=O)NCC(=O)N1CCC[C@H]1C(=O)N[C@H](C(=O)N[C@@H](CC(C)C)C(=O)N1CCC[C@H]1C(=O)N1CCC[C@H]1C(=O)N[C@H](C(=O)N[C@@H](CC(N)=O)C(=O)N[C@H](C(=O)NCC(=O)N[C@@H](CO)C(=O)N[C@@H](CC(N)=O)C(=O)N[C@H](C(=O)N[C@@H](Cc1ccc(O)cc1)C(N)=O)[C@@H](C)O)C(C)C)[C@@H](C)O)C(C)C [rAmy] | 41 ± 5% | 58 ± 11% | 63 ± 8% | 40 ± 8% | 84 ± 11% | – | – | – | – | –
3 | CC[C@H](C)[C@H](NC(=O)[C@H](C)NC(=O)[C@@H](NC(=O)[C@H](CCC(N)=O)NC(=O)[C@@H]1CCCN1C(=O)[C@H](Cc1ccccc1)NC(=O)[C@@H](NC(=O)[C@H](Cc1c[nH]cn1)NC(=O)[C@H](Cc1ccccc1)NC(=O)[C@H](CCCCN)NC(=O)[C@H](CC(N)=O)NC(=O)[C@H](Cc1ccccc1)NC(=O)[C@H](CC(=O)O)NC(=O)[C@H](CCC(N)=O)NC(=O)[C@@H](NC(=O)[C@H](Cc1ccc(O)cc1)NC(=O)[C@@H](NC(=O)CNC(=O)[C@H](CC(C)C)NC(=O)[C@H](CCSC)NC(=O)[C@@H]1CSSC[C@H](N)C(=O)NCC(=O)N[C@@H](CC(N)=O)C(=O)N[C@@H](CC(C)C)C(=O)N[C@@H](CO)C(=O)N[C@@H]([C@@H](C)O)C(=O)N1)[C@@H](C)O)[C@@H](C)O)[C@@H](C)O)[C@@H](C)O)C(=O)NCC(=O)N[C@H](C(=O)NCC(=O)N[C@@H](C)C(=O)N1CCC[C@H]1C(N)=O)C(C)C [hCT] | 43 ± 3% | 153 ± 8% | 141 ± 9% | 53 ± 5% | 186 ± 16% | – | – | – | – | –
4 | CC(C)C[C@H](NC(=O)CNC(=O)[C@H](C)NC(=O)[C@H](CC(C)C)NC(=O)[C@H](CCCNC(=N)N)NC(=O)[C@H](Cc1cnc[nH]1)NC(=O)[C@@H](NC(=O)[C@@H](NC(=O)[C@@H]1CSSC[C@H](NC(=O)[C@H](C)N)C(=O)N[C@@H](CC(=O)O)C(=O)N[C@@H]([C@@H](C)O)C(=O)N[C@@H](C)C(=O)N[C@@H]([C@@H](C)O)C(=O)N1)C(C)C)[C@@H](C)O)C(=O)N[C@@H](CC(C)C)C(=O)N[C@@H](CO)C(=O)N[C@@H](CCCNC(=N)N)C(=O)N[C@@H](CO)C(=O)NCC(=O)NCC(=O)N[C@H](C(=O)N[C@H](C(=O)N[C@@H](CCCCN)C(=O)N[C@@H](CC(N)=O)C(=O)N[C@@H](CC(N)=O)C(=O)N[C@@H](Cc1ccccc1)C(=O)N[C@H](C(=O)N1CCC[C@H]1C(=O)N[C@H](C(=O)N[C@@H](CC(N)=O)C(=O)N[C@H](C(=O)NCC(=O)N[C@@H](CO)C(=O)N[C@@H](CCCCN)C(=O)N[C@@H](C)C(=O)N[C@@H](Cc1ccccc1)C(N)=O)C(C)C)[C@@H](C)O)C(C)C)C(C)C)C(C)C [hαCGRP] | 68 ± 11% | – | 87 ± 14% | – | 146 ± 17% | 182 nM | 6.31 nM | 81.3 nM | 40.7 nM | –
5 | CSCC[C@H](NC(=O)CNC(=O)[C@H](CO)NC(=O)[C@H](Cc1ccccc1)NC(=O)[C@H](CCCNC(=N)N)NC(=O)[C@H](Cc1c[nH]cn1)NC(=O)[C@H](Cc1ccccc1)NC(=O)[C@H](CC(N)=O)NC(=O)[C@H](CC(N)=O)NC(=O)[C@H](CC(C)C)NC(=O)[C@H](CC(N)=O)NC(=O)[C@H](CCCNC(=N)N)NC(=O)[C@H](Cc1c[nH]c2ccccc12)NC(=O)[C@H](Cc1ccc(O)cc1)NC(=O)[C@H](C)NC(=O)[C@H](CO)NC(=O)[C@H](CC(C)C)NC(=O)[C@@H](NC(=O)[C@@H]1CSSC[C@H](N)C(=O)N[C@@H](CO)C(=O)N[C@@H](CC(N)=O)C(=O)N[C@@H](CC(C)C)C(=O)N[C@@H](CO)C(=O)N[C@@H]([C@@H](C)O)C(=O)N1)C(C)C)C(=O)NCC(=O)N[C@@H](Cc1ccccc1)C(=O)NCC(=O)N1CCC[C@H]1C(=O)N[C@@H](CCC(=O)O)C(=O)N[C@H](C(=O)N1CCC[C@H]1C(N)=O)[C@@H](C)O [pCT] (H-CSNLSTCVLSAYWRNLNNFHRFSGMGFGPETP-NH2; disulfide 1-7) | 57 ± 6% | – | 128 ± 8% | 83 ± 10% | 156 ± 9% | 4.47 nM | 6.31 nM | 5.25 nM | 1.91 nM | 3.72 nM
